Assay results reported in patent publication US20230045421A1 (priority 2018, published 2023).
Read-outs that look alike come from different tables or passages of the source.

Test system: HBV rcDNA
Assay: HepDE19 assay with bDNA quantitation of HBV rcDNA
Format: cell-based, hepatitis B virus
Outline: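 HepDE19 cells (HepG2-derived, Tet-regulated HBV replication) were deprived of tetracycline and then exposed to compounds for 7 days at 37 °C in 0.5% DMSO, 8-point titration from 25 μM. rcDNA was quantified by bDNA and EC50/EC90 came from 4-parameter fits. CC50 was measured by CellTiter-Glo ATP content on replicate plates after 4 days.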

[1] = HepDE19 assay, inhibition of formation of relaxed circular DNA (rcDNA), bDNA quantitation; read-out: DE-19bDNA EC50

| Compound | EC50 [1] | also measured |
| --- | --- | --- |
| CC(c1c[nH]c(=O)c2cc(F)c(F)cc12)N(CCS(N)(=O)=O)C(=O)Nc1ccc(F)cc1 (single isomer, unassigned) [Compound 387, 2-(1-(1-(6,7-Difluoro-1-oxo-1,2-dihydroisoquinolin-4-yl)ethyl)-3-(4-fluorophenyl)ureido)ethane-1-sulfonamide] | 0.04 µM |  |
| CC(c1cn(C)c(=O)c2cc(F)ccc12)N(C)C(=O)Nc1ccc(F)c(Cl)c1 (single isomer, unassigned) [Compound 302, 3-(3-Chloro-4-fluorophenyl)-1-(1-(7-fluoro-2-methyl-1-oxo-1,2-dihydroisoquinolin-4-yl)ethyl)-1-methylurea] | 3.3 µM |  |
| CC(c1c[nH]c(=O)c2ccccc12)N(C[C@@H]1CCCO1)C(=O)Nc1ccc(F)c(Cl)c1 (single isomer, unassigned) [Compound 160] |  | EC50 (HepDE19 assay, inhibition of formation of rcDNA; read-out: DE-19bDNA EC50): 23 µM |
| CC(c1cnc(OCc2ncn(C)n2)c2cc(F)c(F)cc12)N(CCCO)C(=O)Nc1ccc(F)c(Cl)c1 (single isomer, unassigned) [Compound 348, 3-(3-chloro-4-fluorophenyl)-1-(1-(6,7-difluoro-1-((1-methyl-1H-1,2,4-triazol-3-yl)methoxy)isoquinolin-4-yl)ethyl)-1-(3-hydroxypropyl)urea] | 1.1 µM |  |
| COc1cccc2c(=O)[nH]cc(C(C)N(C)C(=O)Nc3ccc(F)c(Cl)c3)c12 (single isomer, unassigned) [Compound 265, 3-(3-chloro-4-fluorophenyl)-1-(1-(5-methoxy-1-oxo-1,2-dihydroisoquinolin-4-yl)ethyl)-1-methylurea] |  | EC50 (Hepatitis B virus, HepDE19, HepDE19 assay, inhibition of formation of rcDNA; read-out: DE-19bDNA EC50): 1.5 µM |
| CC(c1c[nH]c(=O)c2c(F)cc(F)cc12)N(C)C(=O)Nc1ccc(F)cc1 (single isomer, unassigned) [Compound 371, 1-(1-(6,8-Difluoro-1-oxo-1,2-dihydroisoquinolin-4-yl)ethyl)-3-(4-fluorophenyl)-1-methylurea] | 0.053 µM |  |
| CC(c1c[nH]c(=O)c2c(F)c(F)ccc12)N(C)C(=O)Nc1cccc(F)c1 (single isomer, unassigned) [Compound 455, 1-(1-(7,8-Difluoro-1-oxo-1,2-dihydroisoquinolin-4-yl)ethyl)-3-(3-fluorophenyl)-1-methylurea] |  | EC50 (read-out: DE-19bDNA EC50; HepDE19 assay, inhibition of formation of relaxed circular DNA (rcDNA), bDNA quantitation): 6.3 µM |
